# Experimental data published in patent publication US7951385B2, “Probiotic strain and antimicrobial peptide derived therefrom” (Cipla Medpro Research and Development (Pty) Ltd., priority 2006, dated 2011).
# Like-named read-outs stand apart in the source and are kept apart here.
# Columns and labels:
# pathogens tested = assay: Adhesion of peptide ST4SA to pathogens (summary); assay type: binding; conditions: conclusion for the pathogens tested (Table 7)
# Description: Binding of peptide ST4SA to target cells is important to ensure penetration of the peptide. The ability of peptide ST4SA to adhere to pathogens was studied and the results were expressed as a percentage binding to the pathogens (Table 7). […] Adhesion of peptide ST4SA to the target cell leads to penetration and disruption of the cell membrane (FIG. 14).
# [1] = tested on: Lactobacillus sakei DSM 20017; assay: Binding of peptide ST4SA to polyethylene (PE); assay type: physicochemical
# Method: Binding of peptide ST4SA to polyethylene (PE) was tested. PE film was cut into sections of 5×5 cm and soaked for 1 h in a solution of 60% isopropanol and peptide ST4SA (activity level: 102 400 AU/ml). The PE sections were air-dried (20 min at 60° C.) and assayed for antimicrobial activity by using the standard agar diffusion method. The plates, seeded with L. sakei DSM 20017, were incubated for 24 h at 30° C. and examined for zones of growth inhibition.
# The strength of binding was determined by soaking the peptide-coated PE film in SDS-buffer, followed by electro-eluting peptide ST4SA from the film with a current of 30 mA for 2 h (room temperature, i.e. ca. 25° C.). Samples were taken at regular time intervals and tested for antimicrobial activity. Protein concentrations were determined by using the Bradford method. Electro-eluted film was tested for antimicrobial activity by using the agar diffusion method as before.
# Streptococcus pneumoniae [2] = assay: β-galactosidase leakage after treatment of pathogens with peptide ST4SA; assay type: cell-based
# Description: (§1) Further evidence of cell membrane damage and leakage of cellular constituents was obtained by testing for extracellular DNA and extracellular β-galactosidase activity.
# Streptococcus pyogenes [3] = assay: as above; assay type: cell-based; conditions: Streptococcus pyogenes 20
# Description: as §1
# [4] = tested on: Middle ear isolates (unknown); assay: as above; assay type: cell-based
# Description: as §1
# Enterococcus spp. HKLHS [5] = assay: as above; assay type: cell-based; conditions: Control organism Enterococcus spp. HKLHS
# Description: as §1
# Klebsiella pneumoniae [6] = assay: as above; assay type: cell-based; conditions: Klebsiella pneumoniae 30
# Description: as §1
# Staphylococcus aureus [7] = assay: as above; assay type: cell-based; conditions: Staphylococcus aureus 36
# Description: as §1
# L. monocytogenes = L. monocytogenes challenged with ST4SA in in vitro gastro-intestinal (GIT) model; assay type: cell-based, Listeria monocytogenes
# Method: The antimicrobial activity of ST4SA against L. monocytogenes in an in vitro gastro-intestinal model was determined. ST4SA was inoculated in the stomach vessel as described hereinbefore. L. monocytogenes (1×10^4) was inoculated in the duodenum vessel of the GIT. Samples were taken from each vessel and plated out on Enterococcus and Listeria specific medium, respectively. As control, only L. monocytogenes was inoculated in the GIT model.
# [8] = tested on: pathogens (Streptococcus pneumoniae, Klebsiella pneumoniae, middle ear isolates); assay: Cell lysis / growth inhibition of pathogens in BHI broth; assay type: cell-based; conditions: peptide added at mid-exponential phase, BHI broth (FIGS. 15 to 23)
# Method: A 0.2% (v/v) inoculum of an overnight pathogen was inoculated into BHI broth. Peptide ST4SA was added to each pathogen at mid-exponential phase.
# virulence factors = assay: Virulence factors assayed (in vitro tests and/or PCR screening); parameters: species or system Enterococcus mundtii
# Description: The presence of virulence factors, viz. vancomycin resistance (VanA/VanB/VanC1/VanC2/VanC3), production of gelatinase (Gel), aggregation substance (AS), adhesin of collagen from enterococci (Ace), enterococcus surface protein (Esp), haemolysin/bacteriocin (Cyl) and non-cytolysin beta hemolysin genes were studied by in vitro tests and/or PCR screening. DNA was extracted from E. mundtii ST4 according to standard methods. The primers designed for amplification of the latter genes were as described.
# Streptococcus pneumoniae [9] = assay: Extracellular DNA after treatment of pathogens with peptide ST4SA; assay type: cell-based
# Description: as §1
# Streptococcus pyogenes [10] = assay: as above; assay type: cell-based; conditions: Streptococcus pyogenes 20
# Description: as §1
# Pseudomonas auringinosa = assay: as above; assay type: cell-based; conditions: Pseudomonas auringinosa E
# Description: as §1
# [11] = tested on: Middle ear isolates (unknown); assay: as above; assay type: cell-based
# Description: as §1
# Enterococcus spp. HKLHS [12] = assay: as above; assay type: cell-based; conditions: Control organism Enterococcus spp. HKLHS
# Description: as §1
# Klebsiella pneumoniae [13] = assay: as above; assay type: cell-based; conditions: Klebsiella pneumoniae 30
# Description: as §1
# Staphylococcus aureus [14] = assay: as above; assay type: cell-based; conditions: Staphylococcus aureus 36
# Description: as §1
# [15] = assay type: physicochemical
# Method: The stability of peptide ST4SA, suspended in sterile distilled water, was tested at temperatures ranging from −20° C. to 60° C. over 42 days (FIG. 12). The peptide remained stable at −20° C. for 42 days and for three weeks at 4° C. […] Peptide ST4SA in powder form did, however, remain stable for 6 months at room temperature (25° C.). Peptide ST4SA will be produced in powder form and marketed as such. Once dissolved in sterile distilled water, peptide ST4SA may be kept for three weeks at 4° C. (see FIG. 12).
substance,measurement,setting,value
"Peptide ST4SA: broad-spectrum antibacterial peptide (bacteriocin) produced by Enterococcus mundtii strain ST4SA, SEQ. ID. NO. 12 (MSQVVGGKYYGNGVSCNKKGCSVDWGKAIGIIGNNSAANLATGGAAGWKS; ENTEROCOCCUS MUNDTII ST4SA)",percentage binding to the pathogens,pathogens tested,at least 75%
same,Time to adsorb to PE,"[1]; PE film, 60% isopropanol, peptide 102 400 AU/ml",≤ 60 s
same,Antimicrobial activity of peptide-coated PE film,"[1]; agar diffusion, L. sakei DSM 20017",high antimicrobial activity
same,Time to release of peptide from the surface of PE,"[1]; electro-elution, current of 30 mA, SDS-buffer",≥ 1 h
same,β-galactosidase recorded at OD420,Streptococcus pneumoniae [2]; Streptococcus pneumoniae 27,No leakage
same,β-galactosidase recorded at OD420,Streptococcus pneumoniae [2]; Streptococcus pneumoniae 29,No leakage
same,β-galactosidase recorded at OD420,Streptococcus pneumoniae [2]; Streptococcus pneumoniae D,No leakage
same,β-galactosidase recorded at OD420,Streptococcus pyogenes [3],No leakage
same,β-galactosidase recorded at OD420,[4]; Middle ear isolate BW,0.370
same,β-galactosidase recorded at OD420,[4]; Middle ear isolate DW,0.293
same,β-galactosidase recorded at OD420,[4]; Middle ear isolate F,0.318
same,β-galactosidase recorded at OD420,[4]; Middle ear isolate GW,0.373
same,β-galactosidase recorded at OD420,[4]; Middle ear isolate HW,0.235
same,β-galactosidase recorded at OD420,[4]; Middle ear isolate K,No leakage
same,β-galactosidase recorded at OD420,[4]; Middle ear isolate L,No leakage
same,β-galactosidase recorded at OD420,[4]; Middle ear isolate M,No leakage
same,β-galactosidase recorded at OD420,Enterococcus spp. HKLHS [5],No leakage
same,β-galactosidase recorded at OD420,Klebsiella pneumoniae [6],No leakage
same,β-galactosidase recorded at OD420,Staphylococcus aureus [7],No leakage
same,L. monocytogenes lower than control,"L. monocytogenes; ileum vessel, compared with the control",1×10^1 cfu/ml
same,Growth of L. monocytogenes,"L. monocytogenes; jejunum vessel, reduced from 8×10^4 (control)",2×10^4
same,Mode of action on pathogens,[8],acted in a bactericidal manner against most pathogens
same,Virulence factor AS (Aggregation substance),virulence factors,−
same,Virulence factor Ace (Adhesin to collagen from E. faecalis),virulence factors,−
same,"Virulence factor Cyl (Cytolysin, β-hemolysin activity)",virulence factors,+
same,Virulence factor Efa-Afm (E. faecium endocarditis antigen),virulence factors,−
same,Virulence factor Efa-Afs (E. faecalis endocarditis antigen),virulence factors,−
same,Virulence factor Esp (Enterococcus surface protein),virulence factors,−
same,Virulence factor Gel (Gelatinase production),virulence factors,−
same,Virulence factor Non-cyt (non-cytolysin beta hemolysin III),virulence factors,+
same,Virulence factor Van A (Vancomycin resistance),virulence factors,−
same,Virulence factor Van B (Vancomycin resistance),virulence factors,−
same,Virulence factor Van C1/2/3,virulence factors,−
same,DNA-leakage (O.D. readings at 260 nm),Streptococcus pneumoniae [9]; Streptococcus pneumoniae 27,1.670
same,DNA-leakage (O.D. readings at 260 nm),Streptococcus pneumoniae [9]; Streptococcus pneumoniae 29,1.182
same,DNA-leakage (O.D. readings at 260 nm),Streptococcus pneumoniae [9]; Streptococcus pneumoniae D,1.160
same,DNA-leakage (O.D. readings at 260 nm),Streptococcus pyogenes [10],0.930
same,DNA-leakage (O.D. readings at 260 nm),Pseudomonas auringinosa,0.187
same,DNA-leakage (O.D. readings at 260 nm),[11]; Middle ear isolate 40,0.801
same,DNA-leakage (O.D. readings at 260 nm),[11]; Middle ear isolate BW,1.186
same,DNA-leakage (O.D. readings at 260 nm),[11]; Middle ear isolate DW,1.153
same,DNA-leakage (O.D. readings at 260 nm),[11]; Middle ear isolate F,1.428
same,DNA-leakage (O.D. readings at 260 nm),[11]; Middle ear isolate GW,0.751
same,DNA-leakage (O.D. readings at 260 nm),[11]; Middle ear isolate HW,1.559
same,DNA-leakage (O.D. readings at 260 nm),[11]; Middle ear isolate K,0.455
same,DNA-leakage (O.D. readings at 260 nm),[11]; Middle ear isolate L,0.592
same,DNA-leakage (O.D. readings at 260 nm),[11]; Middle ear isolate M,0.326
same,DNA-leakage (O.D. readings at 260 nm),Enterococcus spp. HKLHS [12],1.395
same,DNA-leakage (O.D. readings at 260 nm),Klebsiella pneumoniae [13],1.01
same,DNA-leakage (O.D. readings at 260 nm),Staphylococcus aureus [14],0.892
same,Stability,[15],Stability decreased after one week
same,Time peptide remained stable,"[15]; powder form, room temperature (25° C.)",6 months
same,Time peptide remained stable,"[15]; suspended in sterile distilled water, 4° C.",three weeks
same,Time peptide remained stable,"[15]; suspended in sterile distilled water, −20° C.",42 days
